Earlier results on 1 compound are cited in patent US20110189299A1, “PHARMACEUTICAL COMPOSITION CONTAINING SURFACE-COATED MICROPARTICLES” (NITTO DENKO CORPORATION, priority 2008, published 2011).

As usually defined, the pKa is the negative logarithm of the acid dissociation constant.

Structures are written as SMILES.

Take `CN(C)CCc1c[nH]c2ccc(C[C@H]3COC(=O)N3)cc12` [Zolmitriptan]: the pKa was 9.5.
